ChEMBL document CHEMBL4619758, “Discovery of 3-({5-Chloro-1-[3-(methylsulfonyl)propyl]-1H-indol-2-yl}methyl)-1-(2,2,2-trifluoroethyl)-1,3-dihydro-2H-imidazo[4,5-c]pyridin-2-one (JNJ-53718678), a Potent and Orally Bioavailable Fusion Inhibitor of Respiratory Syncytial Virus” (J Med Chem, 2020)
Converted amounts (≈) assume the structure as drawn.

Experiments:
[1] = Cytotoxicity against human HeLa cells assessed as reduction in cell viability after 3 days by ATPlite assay
[2] = Metabolic stability in human liver microsomes assessed as compound metabolized after 15 mins; format: ADME, Microsome; details: read-out: Drug metabolism
CYP3A4 = CYP3A4 (Homo sapiens, UniProt P08684); assay: Time-dependent inhibition of CYP3A4 in human liver microsomes assessed as ratio of IC50 in presence and absence of NADPH using testosterone as substrate; format: ADME; details: probe testosterone, read-out: Ratio IC50
Chain of CYP3A4 (P08684 whole entry): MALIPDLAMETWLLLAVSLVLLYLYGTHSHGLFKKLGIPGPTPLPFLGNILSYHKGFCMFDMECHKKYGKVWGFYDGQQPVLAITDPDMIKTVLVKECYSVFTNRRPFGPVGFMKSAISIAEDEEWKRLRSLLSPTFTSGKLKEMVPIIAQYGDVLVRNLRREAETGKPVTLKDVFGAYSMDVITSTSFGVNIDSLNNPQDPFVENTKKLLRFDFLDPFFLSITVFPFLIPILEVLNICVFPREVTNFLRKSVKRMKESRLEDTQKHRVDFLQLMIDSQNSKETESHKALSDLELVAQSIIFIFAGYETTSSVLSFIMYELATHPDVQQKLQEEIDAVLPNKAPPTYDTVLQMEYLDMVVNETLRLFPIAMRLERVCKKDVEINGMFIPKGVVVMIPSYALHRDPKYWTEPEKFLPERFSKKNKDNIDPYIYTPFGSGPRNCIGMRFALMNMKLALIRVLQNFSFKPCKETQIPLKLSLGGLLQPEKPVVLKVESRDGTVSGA

[3] = Metabolic stability in rat liver microsomes assessed as compound metabolized after 15 mins; format: ADME, Microsome; details: read-out: Drug metabolism
[4] = Metabolic stability in dog liver microsomes assessed as compound metabolized after 15 mins; format: ADME, Canis lupus familiaris, Microsome; details: read-out: Drug metabolism
[5] = Clearance in Sprague-Dawley rat plasma at 2.5 mg/kg, iv; format: ADME, organism-based
[6] = Ratio of AUC (0 to last) in lung to plasma of Sprague-Dawley rat at 2.5 mg/kg, iv or 10 mg/kg, po; format: ADME, organism-based; details: lung and plasma, read-out: Ratio AUC
[7] = Oral bioavailability in Sprague-Dawley rat at 10 mg/kg; format: ADME, organism-based; details: in vivo
[8] = Clearance in dog plasma at 1 mg/kg, iv; format: ADME, organism-based, Canis lupus familiaris
[9] = Protein binding in human plasma assessed as unbound fraction; format: ADME, cell-free
[10] = system: Respiratory syncytial virus; assay: Antiviral activity against RSV Long infected in po dosed cotton rat model assessed as reduction in viral titer in broncho alveolar lavage fluid pretreated for 1 hr followed by viral infection measured after 4 days by plaque reduction assay; format: functional, organism-based; details: for EC50: human respiratory syncytial virus
[11] = system: Respiratory syncytial virus; assay: Antiviral activity against RSV Long infected in po dosed cotton rat model assessed as reduction in viral titer in lung lavage fluid pretreated for 1 hr followed by viral infection measured after 4 days by plaque reduction assay; format: functional, organism-based; details: for EC50: human respiratory syncytial virus
Cytochrome P450 3A4 = Cytochrome P450 3A4 (Homo sapiens, UniProt P08684); assay: Time-dependent inhibition of CYP3A4 in human liver microsomes using testosterone as substrate; format: ADME
Chain of Cytochrome P450 3A4 (P08684 whole entry): as above

[12] = Oral bioavailability in dog at 5 mg/kg; format: ADME, organism-based, Canis lupus familiaris; details: in vivo
[13] = Clearance in dog plasma at 1 mg/kg, iv relative to liver blood flow; format: ADME, organism-based, Canis lupus familiaris; details: in vivo
[14] = Clearance in Sprague-Dawley rat at 2 mg/kg, iv administered as single dose; format: ADME, organism-based; details: in vivo
[15] = Volume of distribution at steady state in Sprague-Dawley rat at 2 mg/kg, iv administered as single dose; format: ADME, organism-based; details: in vivo, read-out: Vdss
[16] = Cmax in Sprague-Dawley rat at 10 mg/kg, po administered as single dose; format: ADME, organism-based; parameters: dose 10 mg/kg, route oral; details: in vivo
[17] = AUC in Sprague-Dawley rat at 10 mg/kg, po administered as single dose; format: ADME, organism-based; details: in vivo
[18] = Absolute oral bioavailability in Sprague-Dawley rat at 10 mg/kg administered as single dose; format: ADME, organism-based; details: in vivo
[19] = Ratio of AUC (0 to last) in lung to plasma of Sprague-Dawley rat at 10 mg/kg, po administered as single dose; format: ADME, organism-based; details: lung and plasma, read-out: Ratio AUC
[20] = Clearance in Sprague-Dawley rat at 2 mg/kg, iv administered as single dose relative to liver blood flow; format: ADME, organism-based; details: in vivo
[21] = Aqueous solubility of the compound; format: physicochemical; details: buffer

Row | Compound | metabolised at 0.25 h [2] [%] | metabolised at 0.25 h [3] [%] | metabolised at 0.25 h [4] [%] | clearance [5] [mL/min/kg] | Kp [6] | bioavailability [7] [%] | clearance [8] [mL/min/kg] | fraction unbound [9] | bioavailability [12] [%] | CL [13] [%] | CC50 at 72 h [1] [µM] | Activity [10] | EC50 [10] [µg/mL] | Activity [11] | EC50 [11] [µg/mL] | further results
1 | CS(=O)(=O)CCCn1c(Cn2c(=O)n(C3CC3)c3ccncc32)cc2cc(Cl)ccc21 | 18 | – | – | – | – | – | – | – | – | – | > 50 | – | – | – | – | IC50 shift (CYP3A4): 18
2 | CS(=O)(=O)CCCn1c(Cn2c(=O)n(CC(F)(F)F)c3ccncc32)cc2cc(Cl)ccc21 [RILEMATOVIR] | 1 | 60 | 28 | 65 | 3.5 | 42 | 8.5 | 0.06 | – | – | > 50 | Dose-dependent effect | 0.075 (≈ 0.15 µM) | Dose-dependent effect | 0.081 (≈ 0.162 µM) | TDI (Cytochrome P450 3A4): Not Active
3 | O=c1n(Cc2cc3cnccc3n2CCCC(F)(F)F)c2cnccc2n1C1CC1 | 21 | 80 | – | – | – | – | – | 0.472 | – | – | > 50 | – | – | – | – | clearance [14]: 75 mL/min/kg; Vd [15]: 3.3 L/kg; Cmax [16]: 532 ng/mL; AUC [17]: 545 ng·h/mL; bioavailability [18]: 28%; Kp [19]: 11; CL [20]: > 100%

The next lines start with results.

Row | metabolised at 0.25 h [2] [%] | metabolised at 0.25 h [3] [%] | metabolised at 0.25 h [4] [%] | clearance [5] [mL/min/kg] | Kp [6] | bioavailability [7] [%] | clearance [8] [mL/min/kg] | fraction unbound [9] | bioavailability [12] [%] | CL [13] [%] | Compound | CC50 at 72 h [1] [µM] | Activity [10] | EC50 [10] [µg/mL] | Activity [11] | EC50 [11] [µg/mL] | further results
4 | 20 | 40 | 96 | 16.2 | 1.3 | 86 | 24.8 | 0.005 | 9 | 90 | COc1ccc(-n2c(=O)n(Cc3cc4cc(Cl)ccc4n3CCCC#N)c3cnccc32)cc1 | > 50 | Dose-dependent effect | 0.499 (≈ 1.06 µM) | Dose-dependent effect | 0.121 (≈ 0.256 µM) | –
5 | 19 | 74 | 56 | 31.7 | 2.5 | 32 | 14.3 | 0.008 | 26 | 50 | COc1ccc(-n2c(=O)n(Cc3cc4cc(Cl)ccc4n3CCCC#N)c3cnccc32)cc1OC | > 50 | Dose-dependent effect | 0.18 (≈ 0.359 µM) | Dose-dependent effect | 0.157 (≈ 0.313 µM) | –
6 | 9 | – | – | – | – | – | – | – | – | – | CS(=O)(=O)c1ccc(-n2c(=O)n(Cc3cc4cc(Cl)ccc4n3CCCC#N)c3cnccc32)cc1 | > 50 | – | – | – | – | solubility [21]: Insoluble
